Drawing on ChEMBL document CHEMBL1155672, “Secobotrytriendiol and related sesquiterpenoids: new phytotoxic metabolites from Botrytis cinerea” (J Nat Prod, 2000), this text covers Activity for five compounds.

What all share (assay type): functional, organism-based
For experiment [1], the system named is Nicotiana tabacum. Nature of the experiment: Phytotoxicity against Nicotiana tabacum at 1000 ppm after 7 days.
Experiment [2] deals with Nicotiana tabacum. Nature of the experiment: Phytotoxicity against Nicotiana tabacum at 500 ppm after 7 days.
For experiment [3], the system named is Nicotiana tabacum. Nature of the experiment: Phytotoxicity against Nicotiana tabacum at 250 ppm after 7 days.

Calls of active or inactive are those of the source. The calls are words filed in the database; no cut-off is given here.

Turning to `CO[C@H]1O[C@H](OC)[C@@]2(C)CC(C)(C)[C@@H]3[C@@H](OC(C)=O)C[C@@H](C)[C@H]1[C@@]32O`, the result in the experiment with Nicotiana tabacum [1] was Active. For the compound `Cc1ccc2c(c1CO)[C@@](C)(CO)CC2(C)C`, the outcome in the experiment on Nicotiana tabacum [2] was Active. Still for that read-out and setting: as for `C=CC1=C(/C(=C\C)CO)[C@@](C)(CO)CC1(C)C`, the entry is “Active”. Turning to `CC1(C)C[C@](C)(CO)c2c1ccc(CO)c2CO`, in the experiment with Nicotiana tabacum [3], the result was Active. For the compound `COC(=O)[C@H]1[C@H](C)C[C@H](OC(C)=O)[C@H]2C(C)(C)C[C@](C)(CO)[C@@]12O`, the outcome in the experiment with Nicotiana tabacum [2] was Active.
